This note sets out measurements from US11564923B2, “Compounds and pharmaceutical compositions thereof for the treatment of inflammatory disorders” (Galapagos NV, priority 2017, dated 2023).

For test [1], the target named is T1, Recombinant human JAK1 (catalytic domain, amino acids 866-1154) (Homo sapiens, UniProt P23458).
T1 construct: catalytic domain, amino acids 866-1154
Nature of the test: JAK1 inhibition assay. The format is biochemical. The conditions noted are these: read-out: JAK1 potency IC50.

The subject of test [2] is IFNα activation of STAT1 in PBMC. Nature of the test: IFNα activation of STAT1 in PBMC. It is filed as cell-based. The settings on record: Homo sapiens; IFNα activation of STAT1 in PBMC; average IC50; read-out: IFNα signaling inhibitory potency IC50. The gist of the method:
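Human PBMC, with red cells lysed by NH4Cl, were pre-treated with compound for 30 min at 37 °C and 5% CO2. They were then stimulated for 30 min with recombinant human IFNα at 5 ng/mL final.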

The subject of test [3] is IL-12 activation of STAT4 in NK-92 cells. The test is described as follows: IL-12 activation of STAT4 in NK-92 cells using AphaLISA SureFire technology. It is filed as cell-based. The settings on record: Homo sapiens, NK92; IL-12 activation of STAT4 in NK-92 cells, AlphaLISA SureFire; average IC50; read-out: IL12 pSTAT4 IC50. The gist of the method: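 NK-92 cells, starved of rhIL-2 overnight, were stimulated with rhIL-12 for 30 min at 37 °C with test compounds, then lysed. Phospho-STAT4 (Tyr693) was read by AlphaLISA SureFire. Percent inhibition versus the vehicle-plus-trigger signal was fitted by sigmoidal nonlinear regression to give IC50, averaged over experiments.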
(In general: In Alpha technology, singlet oxygen from a donor bead excites a nearby acceptor bead.)

For test [4] the test system is unchanged. The test is described as follows: IL-12 activation of STAT4 in NK-92 cells using MSD as readout. The format is cell-based. The settings on record: Homo sapiens, NK92; NK-92 cells, rhIL-12 25 ng/mL, MSD readout; read-out: IL12 pSTAT4 IC50. On the procedure: IL-2 is added freshly to the medium with each medium refreshment step. Cells are cultured in a humidified incubator at 37° C. 5% CO2.
NK-92 cells are pre-incubated with test compounds or vehicle for 30 min at 37° C. 5% CO2. […] NK-92 cells are triggered with rhIL-12 for 45 min at 37° C. 5% CO2.
After 45 min of cytokine stimulation the cells are lysed by addition of 50 μL ice-cold lysis buffer (supplemented with the MSD kit). Plates are frozen at −80° C. for minimal 1 hour to lyse the cells completely. After thawing the levels of phospho-STAT4 are quantified using the Phospho-STAT4 (Tyr693) kit (MSD, Catalogue number K150PAD-2) according to the manufacturer's instructions. Electroluminescent signal is measured on the MSD reader.
The percentage inhibition is calculated as: […]
RLU (trigger/veh): Relative lumescent signal determined in presence of vehicle and trigger
RLU (test compound): Relative luminescent signal determined in presence of test compounds)
PIN values are plotted for compounds tested in dose-response and IC50 values are derived using LIMS Software applying non-linear regression (sigmoidal) curve fitting. The data are expressed as the average IC50 from different experiments.

T1 sequence (P23458 866-1154): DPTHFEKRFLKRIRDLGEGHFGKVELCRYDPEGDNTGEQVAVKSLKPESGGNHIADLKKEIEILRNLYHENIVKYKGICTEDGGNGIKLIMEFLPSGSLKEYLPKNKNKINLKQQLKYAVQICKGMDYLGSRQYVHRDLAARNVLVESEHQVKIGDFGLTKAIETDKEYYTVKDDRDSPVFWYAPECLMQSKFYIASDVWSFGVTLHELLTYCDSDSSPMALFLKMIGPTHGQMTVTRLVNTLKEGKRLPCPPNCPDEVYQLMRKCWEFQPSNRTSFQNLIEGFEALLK

One may read the IC50 as the midpoint of a concentration-inhibition curve. For `Cc1cc(C(F)(F)F)ncc1Oc1cc(Nc2cc(N)ncn2)c2ncn(C)c2n1` [Compound 1, N-[3-Methyl-5-(4-methyl-6-trifluoromethyl-pyridin-3-yloxy)-3H-imidazo[4,5-b]pyridin-7-yl]-pyrimidine-4,6-diamine], the IC50 in test [1] was 153 nM; in test [2] it was 85.5 nM; in test [3], 111 nM; in test [4], 539 nM.
The matching figures for `Cc1cc(C#N)ncc1Nc1cc(Nc2ccc(C(=O)N(C)C)cn2)c2ncn(C)c2n1` [Compound 67, 6-[[5-[(6-cyano-4-methyl-3-pyridyl)amino]-3-methyl-imidazo[4,5-b]pyridin-7-yl]amino]-N,N-dimethyl-pyridine-3-carboxamide]: 51.4 nM, 51 nM, 54.1 nM and 233 nM.
The matching figures for `Cc1cc(C#N)ncc1Oc1cc(Nc2ccc(S(=O)(=O)C(F)F)cc2)c2ncn(C)c2n1` [Compound 68, 5-[7-[4-(difluoromethylsulfonyl)anilino]-3-methyl-imidazo[4,5-b]pyridin-5-yl]oxy-4-methyl-pyridine-2-carbonitrile]: 113 nM, 128 nM, 122 nM and 1440 nM.
The matching figures for `Cc1cc(C#N)ncc1Oc1cc(Nc2ccc(S(=O)(=O)C3CC3)cc2)c2ncn(C)c2n1` [Compound 69, 5-[7-(4-cyclopropylsulfonylanilino)-3-methyl-imidazo[4,5-b]pyridin-5-yl]oxy-4-methyl-pyridine-2-carbonitrile]: 61.3 nM, 90 nM, 42.8 nM and 204 nM.
`Cc1cc(C#N)ncc1N(c1cc(Nc2cc(N)ncn2)c2ncn(C)c2n1)C1CC1` [Compound 88, 5-[[7-[(6-aminopyrimidin-4-yl)amino]-3-methyl-imidazo[4,5-b]pyridin-5-yl]-cyclopropyl-amino]-4-methyl-pyridine-2-carbonitrile]: the concentration for half-maximal inhibition (IC50) in test [1] was 5.3 nM; in test [2], 14 nM; in test [3], 22 nM; in test [4], 90.1 nM.
On to `Cn1cnc2c(Nc3ccc(S(C)(=O)=O)cn3)cc(NC(C3CC3)C(F)(F)F)nc21` (stereo not drawn) [Compound 92, N5-(1-cyclopropyl-2,2,2-trifluoro-ethyl)-3-methyl-N7-(5-methylsulfonyl-2-pyridyl)imidazo[4,5-b]pyridine-5,7-diamine], for which the IC50 in test [1] amounted to 9.6 nM; in test [2] it was 67 nM; in test [4] it was 282 nM.
Turning to `CC(C)C(Nc1cc(Nc2cc(N)ncn2)c2ncn(C)c2n1)C(F)(F)F` (stereo not drawn) [Compound 93, N7-(6-aminopyrimidin-4-yl)-3-methyl-N5-[2-methyl-1-(trifluoromethyl)propyl)imidazo[4,5-b]pyridine-5,7-diamine], the IC50 in test [1] turned out to be 57.1 nM; in test [2], 65 nM; in test [3], 25.4 nM; in test [4], 201 nM.
